In PubChem BioAssay (NCI):
Several values for one entry are separate records, joined by “and”; a condition that tells them apart may be missing. Equal entries are not always repeated.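 Assay format: 96-well plates, 48-hour exposure. At the GI50, growth is halved. The concentration for full growth arrest is given as TGI.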

What was measured:
Test in all cases: inhibition of tumour cell growth, NCI panel, 48 h
OVCAR-3 ovarian = test system: OVCAR-3 ovarian
SW-620 colon = test system: SW-620 colon
SK-MEL-2 melanoma = test system: SK-MEL-2 melanoma
UACC-62 melanoma = test system: UACC-62 melanoma
HCC-2998 colon = test system: HCC-2998 colon
RPMI-8226 leukemia = test system: RPMI-8226 leukemia
NCI-H23 lung = test system: NCI-H23 lung
MCF7 breast = test system: MCF7 breast
NCI/ADR-RES ovarian = test system: NCI/ADR-RES ovarian
HS 578T breast = test system: HS 578T breast

SMILES | TGI (OVCAR-3 ovarian) | TGI (SW-620 colon) | TGI (SK-MEL-2 melanoma) | TGI (UACC-62 melanoma) | TGI (HCC-2998 colon) | TGI (RPMI-8226 leukemia) | TGI (NCI-H23 lung) | TGI (MCF7 breast) | TGI (NCI/ADR-RES ovarian) | TGI (HS 578T breast) | GI50 (OVCAR-3 ovarian) | GI50 (MCF7 breast) | GI50 (SW-620 colon) | GI50 (SK-MEL-2 melanoma) | GI50 (NCI/ADR-RES ovarian) | GI50 (HCC-2998 colon) | GI50 (HS 578T breast) | GI50 (NCI-H23 lung) | GI50 (UACC-62 melanoma) | GI50 (RPMI-8226 leukemia)
CN1CN(C2OC(CO)C(O)C2O)c2nc(N)[nH]c(=O)c21 (stereo not drawn) | > 100 µM | > 100 µM | > 100 µM | > 100 µM | > 100 µM | > 100 µM | > 100 µM |  |  |  |  |  |  |  |  |  |  |  |  | 
COc1cc(/C=C(\NC(=O)c2ccccc2)c2nc3ccc4c(c3[nH]2)C(=O)c2ccccc2C4=O)cc(OC)c1OC | > 100 µM | > 100 µM | > 100 µM | > 100 µM | > 100 µM | > 100 µM | > 100 µM |  |  |  |  |  |  |  |  |  |  |  |  | 
N#CC(C(=O)C(=O)Nc1ccccc1)c1ccccc1 (stereo not drawn) | > 100 µM | > 100 µM | > 100 µM | > 100 µM |  | > 100 µM | > 100 µM |  |  |  |  |  |  |  |  |  |  |  |  | 
O=C1C(=O)N(c2ccc(Cl)cc2)C(=O)C(=O)C1c1nc2ccccc2o1 | > 100 µM | > 100 µM | > 100 µM | > 100 µM | > 100 µM | > 100 µM | > 100 µM |  |  |  |  |  |  |  |  |  |  |  |  | 
O=c1c2ccc(S(=O)(=O)c3ccc4c(=O)n5c6ccccc6nc5c5cccc3c45)c3cccc(c32)c2nc3ccccc3n12 | > 100 µM |  | 65.6 µM | > 100 µM | > 100 µM | > 100 µM | > 100 µM | > 100 µM | > 100 µM |  |  |  |  |  |  |  |  |  |  | 
O=C(O)C[C@@H](Cl)[C@H](NC(=O)OCc1ccccc1)C(=O)O | > 100 µM | > 100 µM | > 100 µM | > 100 µM | > 100 µM | > 100 µM | > 100 µM |  |  |  |  |  |  |  |  |  |  |  |  | 
BrC(Br)=C1C(=C(Br)Br)C(Br)C1Br (stereo not drawn) | 2.15 µM | 1 µM | 7.7 µM | 1.91 µM | 0.777 µM | 1.14 µM | 1.46 µM | 1.31 µM |  | 23.3 µM |  |  |  |  |  |  |  |  |  | 
COc1cc(Oc2c(C)c(Cl)c(OC)c(Cl)c2OC)c2c(c1Cl)COC2=O |  | > 100 µM |  | > 100 µM | > 100 µM | 13.1 µM | > 100 µM | 86.2 µM | > 100 µM | > 100 µM |  |  |  |  |  |  |  |  |  | 
CC(=O)Nc1cc2cc(N)ccc2oc1=O | > 100 µM | > 100 µM | > 100 µM |  | > 100 µM | > 100 µM | > 100 µM | > 100 µM | > 100 µM | > 100 µM |  |  |  |  |  |  |  |  |  | 
NCCc1ccc(S(=O)(=O)F)cc1 | 78.1 µM | > 100 µM | > 100 µM |  | > 100 µM |  | > 100 µM | > 100 µM | > 100 µM | > 100 µM | 31.1 µM | 63.5 µM | 52.8 µM | 90.9 µM | > 100 µM | 39.1 µM | 82.8 µM | > 100 µM |  | 
CCC(=O)N1C(=O)OCC1C(C)C (stereo not drawn) | > 100 µM | > 100 µM | > 100 µM | > 100 µM | > 100 µM | > 100 µM | > 100 µM |  |  |  |  |  |  |  |  |  |  |  |  | 
CC(C)C12Cc3c(ccc4ccccc34)OC1(C)Oc1ccc3ccccc3c1C2 (stereo not drawn) | > 100 µM | > 100 µM | > 100 µM | > 100 µM |  |  | > 100 µM |  |  |  |  |  |  |  |  |  |  |  |  | 
N/N=C1\C(=O)N(Cc2ccccc2)C(=O)C1C(=O)NCc1ccccc1 (stereo not drawn) | > 100 µM | > 100 µM | > 100 µM | > 100 µM | > 100 µM | > 100 µM | > 100 µM |  |  |  |  |  |  |  |  |  |  |  |  | 
CCCc1n(Cc2ccc3ccccc3c2)cc[n+]1Cc1ccc2ccccc2c1 |  | 3.33 µM |  | 2.02 µM | 2.07 µM | 1.67 µM | 2.51 µM | 2.77 µM | 44.3 µM | 6.67 µM |  | 1.11 µM | 1.34 µM |  | 17.1 µM | 0.716 µM | 1.75 µM | 0.521 µM | 0.647 µM | 0.399 µM
O=S(=O)([O-])c1ccc(N=Cc2ccccc2[O-])cc1.O=S(=O)([O-])c1ccc(N=Cc2ccccc2[O-])cc1.[Co+2] |  | > 100 µM | > 100 µM | > 100 µM | > 100 µM | > 100 µM | > 100 µM |  |  |  |  |  | > 100 µM | > 100 µM |  | 79.1 µM |  | > 100 µM | 76.8 µM | 96.8 µM
Cc1ccc(Nc2nccc(N(C)c3ccc4c(C)n(C)nc4c3)n2)cc1S(N)(=O)=O | > 100 µM and > 10 µM and 77.9 µM | > 100 µM |  |  | > 100 µM | > 100 µM and > 10 µM and 31.6 µM | > 100 µM and > 10 µM and 93.1 µM | > 100 µM | > 100 µM |  | 7.93 µM and 6.42 µM and 15.2 µM | 4.06 µM and 3.1 µM and 6.69 µM |  | 4.67 µM and 1.46 µM and 4.62 µM | 45.8 µM and 23.1 µM | > 100 µM and 29.8 µM |  | 4.03 µM and 2.92 µM and 6.49 µM |  | 10.8 µM and 2.61 µM and 6.49 µM
O=S(=O)(CCN1CCOCC1)Nc1cc(-c2ccc3ncnc(Nc4ccc(F)c(Cl)c4)c3c2)cnc1Cl | 3.91 µM | 15.8 µM |  | 1.09 µM | 7.73 µM |  | > 100 µM | 22.9 µM | > 100 µM |  | 0.391 µM | 0.335 µM | 1.3 µM |  | 5.63 µM | 1.05 µM |  | 1.02 µM | 0.153 µM | 
CC(CC(=O)N1C(=O)C(C)(C)[C@@H](O)[C@H]1CC(C)C(Cl)(Cl)Cl)C(Cl)(Cl)Cl (stereo partly drawn) | > 100 µM | > 100 µM |  | > 100 µM | > 100 µM | > 100 µM |  |  |  |  |  |  |  |  |  |  |  |  |  | 
COC(OC)c1cc2c(cc1C=O)OCO2 | > 100 µM | > 100 µM | > 100 µM | > 100 µM | > 100 µM |  | > 100 µM |  |  |  |  |  |  |  |  |  |  |  |  | 
CO[C@@H]1C=C[C@@]23c4cc5c(cc4CN(C[C@@H]2O)[C@H]3C1)OCO5 | > 100 µM | > 100 µM | 49.2 µM | 64.2 µM | 56.6 µM | > 100 µM | > 100 µM |  |  |  |  |  |  |  |  |  |  |  |  | 
CSCS(=O)C[C@H](CO)NC(=O)/C=C/c1c(C)[nH]c(=O)[nH]c1=O (stereo partly drawn) | 4.63 µM and 3.98 µM | > 54.6 µM and 25.4 µM | 4.59 µM and 2.75 µM | 4.56 µM and 3.44 µM | 6.27 µM and 4.1 µM | 6.71 µM | 4.95 µM and 2.47 µM | 6.86 µM | 6.07 µM |  | 1.89 µM |  | 3.35 µM | 1.65 µM |  | 2.5 µM |  | 1.84 µM | 1.39 µM | 
O=c1[nH]c2ccccc2c2nc3ccccc3n12 | > 100 µM | > 100 µM |  | > 100 µM | > 100 µM | > 100 µM | > 100 µM | > 100 µM | > 100 µM | > 100 µM |  |  |  |  |  |  |  |  |  | 
COc1ccc(/C=C2\CN(C(=O)C(Cl)Cl)C/C(=C\c3ccc(OC)cc3)C2=O)cc1 |  | 1.78 µM |  |  | 2.2 µM |  | 4 µM | 1.51 µM | 15.1 µM | > 100 µM |  | 0.296 µM | 0.351 µM |  | 2 µM | 1.02 µM | 2.65 µM | 1.56 µM |  | 
